According to article PMC7349874, “High Content Screening Using New U2OS Reporter Cell Models Identifies Harmol Hydrochloride as a Selective and Competitive Antagonist of the Androgen Receptor” (Cells, 2020):
Where a name gives a salt, the structure may show the parent alone.

Assays:
[1] = system: AR target genes TMPRSS2, FKBP5, PSA; assay: RT-qPCR of AR target genes in LNCaP cells; details: 3 µM, 24 h, 1 nM R1881
Protocol: LNCaP and VCaP cells were seeded in 6-well plates (10^6 and 2 × 10^6 cells per well, respectively) and, 48 h later, complete medium was replaced by charcoal-stripped medium with 5% FBS. Cells were then treated for 24 h with the tested compounds, and RNA extraction was performed using the Quick RNA Miniprep kit (Zymo-Research, Irvine, CA, USA), according to the manufacturer’s protocol. Reverse transcription was performed with 0.5 µg total RNA using the SuperScript III reverse transcriptase kit (ThermoFisher, Waltham, MA, USA), according to the manufacturer’s protocol, in a final volume of 20 µL. The levels of genes transcripts were measured by real time PCR using a LightCycler 480 system (Roche Life Science, Penzberg, Germany) in the presence of SYBRGreen (SYBR® Premix Ex Taq^tm) and the following primers: FKBP5, sense 5′-[sequence]-3′; antisense 5′-[sequence]-3′; PSA, sense 5′-[sequence]-3′; antisense 5′-[sequence]-3′; TMPRSS2, sense 5′-[sequence]-3′, antisense 5′-[sequence]-3′; GR, sense 5′-[sequence]-3′, antisense 5′-[sequence]-3′; HPRT, sense 5′-[sequence]-3′; antisense 5′-[sequence]-3′; GAPDH, sense 5′-[sequence]-3′; antisense 5′-[sequence]-3′. Expression levels were evaluated with the ΔΔCt method and were normalized to GAPDH. Results are expressed as mRNA expression, relative to control (untreated cells), and are the mean ± SEM of 3 independent experiments.

full-length AR = target: T1, full-length AR (Homo sapiens, UniProt P10275); assay: Transactivation assay in DU145 cells transiently overexpressing full-length AR; type: cell-based; details: 1 nM R1881
T1 sequence (P10275 1-920): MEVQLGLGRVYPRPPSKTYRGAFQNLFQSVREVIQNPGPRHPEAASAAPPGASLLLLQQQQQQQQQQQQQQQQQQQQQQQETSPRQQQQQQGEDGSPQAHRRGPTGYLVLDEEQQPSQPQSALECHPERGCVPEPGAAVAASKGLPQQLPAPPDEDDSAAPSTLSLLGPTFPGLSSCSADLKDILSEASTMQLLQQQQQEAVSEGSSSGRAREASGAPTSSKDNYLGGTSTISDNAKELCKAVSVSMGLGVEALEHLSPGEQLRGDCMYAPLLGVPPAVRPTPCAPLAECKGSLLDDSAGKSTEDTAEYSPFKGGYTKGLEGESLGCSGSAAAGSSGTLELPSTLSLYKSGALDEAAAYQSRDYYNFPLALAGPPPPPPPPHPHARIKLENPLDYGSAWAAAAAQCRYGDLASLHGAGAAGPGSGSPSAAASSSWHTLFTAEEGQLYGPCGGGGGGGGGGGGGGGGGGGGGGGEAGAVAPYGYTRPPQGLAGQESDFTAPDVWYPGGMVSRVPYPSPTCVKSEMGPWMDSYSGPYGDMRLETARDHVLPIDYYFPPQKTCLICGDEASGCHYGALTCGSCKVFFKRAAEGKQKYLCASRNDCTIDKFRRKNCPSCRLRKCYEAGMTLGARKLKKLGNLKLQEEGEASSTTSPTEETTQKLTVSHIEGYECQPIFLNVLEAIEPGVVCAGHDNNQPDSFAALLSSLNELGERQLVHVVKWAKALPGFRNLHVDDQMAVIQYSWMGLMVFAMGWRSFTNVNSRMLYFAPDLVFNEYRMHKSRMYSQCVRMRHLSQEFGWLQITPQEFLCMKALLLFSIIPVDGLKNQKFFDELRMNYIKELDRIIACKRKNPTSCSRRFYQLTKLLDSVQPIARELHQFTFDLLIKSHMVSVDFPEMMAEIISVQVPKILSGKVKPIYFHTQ
Source text: transactivation assays as in Fig. 3.
performed in quadruplicate.
[Harmol Hydrochloride] (M)

AR = target: T2, AR (Homo sapiens, UniProt P10275); assay: Transactivation assay in PC3 hAR MMTV-luc (PALM) cells; details: for IC50: IC50 of AR transactivation inhibition
T2 sequence (P10275 1-920): T1 sequence (P10275 1-920)

[2] = target: T3, glucocorticoid receptor (GR) (Homo sapiens, UniProt P04150); assay: Transactivation assay in HMLN GR cells; type: cell-based; details: 16 h, antagonism in the presence of 5 nM dexamethasone
T3 construct: expressed in transfected cells
T3 sequence (P04150 1-777): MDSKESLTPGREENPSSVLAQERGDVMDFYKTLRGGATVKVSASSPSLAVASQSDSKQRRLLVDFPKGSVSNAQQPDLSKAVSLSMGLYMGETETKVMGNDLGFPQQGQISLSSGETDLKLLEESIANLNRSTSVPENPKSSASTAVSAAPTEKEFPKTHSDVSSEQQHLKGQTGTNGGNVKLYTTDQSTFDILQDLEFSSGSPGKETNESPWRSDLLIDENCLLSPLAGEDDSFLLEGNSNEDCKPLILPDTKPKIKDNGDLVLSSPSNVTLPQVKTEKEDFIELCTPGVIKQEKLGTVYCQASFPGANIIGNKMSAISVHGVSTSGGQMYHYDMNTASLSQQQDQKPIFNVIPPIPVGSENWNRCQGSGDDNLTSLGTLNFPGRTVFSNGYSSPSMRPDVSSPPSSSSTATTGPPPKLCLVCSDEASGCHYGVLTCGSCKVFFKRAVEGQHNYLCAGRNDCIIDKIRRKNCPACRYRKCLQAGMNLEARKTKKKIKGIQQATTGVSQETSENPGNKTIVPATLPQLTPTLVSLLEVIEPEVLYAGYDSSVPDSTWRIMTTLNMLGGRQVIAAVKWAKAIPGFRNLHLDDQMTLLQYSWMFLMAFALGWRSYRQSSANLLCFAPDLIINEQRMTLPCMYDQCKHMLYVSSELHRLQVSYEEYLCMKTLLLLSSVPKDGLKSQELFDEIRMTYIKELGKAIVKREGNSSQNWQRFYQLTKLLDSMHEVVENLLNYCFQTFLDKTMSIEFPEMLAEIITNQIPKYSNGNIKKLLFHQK
Source text: HG5LN MR and HG5LN PXR luciferase reporter cell lines were obtained by stable expression of individual ligand binding domains fused to GAL4 DNA binding domain in HG5LN (HeLa GAL4REx5-luciferase) cells, as previously described. HELN PR cells were obtained by stably expressing PR with the ERα DNA binding domain in HELN (HeLa ERE-luciferase) cells and HMLN GR cells were obtained by stable co-transfection of HeLa cells with a plasmid encoding for a glucocorticoid responsive gene (MMTV-Luc-SV-Neo) and a glucocorticoid receptor expressing plasmid, as previously described.
Agonistic activities were evaluated in HMLN GR, HELN PR, HG5LN MR, and HG5LN PXR cells, using dexamethasone 100 nM, R5020 100 nM, aldosterone 100 nM, and SR12813 3 μM as a positive control, respectively. […] RU486 was used as a control antagonist for GR and PR, and spironolactone for MR.
HMLN glucocorticoid receptor (GR), HG5LN mineralocorticoid receptor (MR), HELN progesterone receptor (PR) and HG5LN PXR cells were used to evaluate the antagonistic effect of the tested compounds on (A) the glucocorticoid receptor (GR), (B) the mineralocorticoid receptor (MR), (C) the progesterone receptor (PR) and (D) the agonistic activity towards the pregnane X receptor (PXR). […]

GR = GR expression (RT-qPCR and Western blot) in LNCaP cells; details: 3 µM, 24 h, 1 nM R1881
Protocol: LNCaP and VCaP cells were seeded in 6-well plates (10^6 and 2 × 10^6 cells per well, respectively) and, 48 h later, complete medium was replaced by charcoal-stripped medium with 5% FBS. Cells were then treated for 24 h with the tested compounds, and RNA extraction was performed using the Quick RNA Miniprep kit (Zymo-Research, Irvine, CA, USA), according to the manufacturer’s protocol. Reverse transcription was performed with 0.5 µg total RNA using the SuperScript III reverse transcriptase kit (ThermoFisher, Waltham, MA, USA), according to the manufacturer’s protocol, in a final volume of 20 µL. The levels of genes transcripts were measured by real time PCR using a LightCycler 480 system (Roche Life Science, Penzberg, Germany) in the presence of SYBRGreen (SYBR® Premix Ex Taq^tm) and the following primers: FKBP5, sense 5′-[sequence]-3′; antisense 5′-[sequence]-3′; PSA, sense 5′-[sequence]-3′; antisense 5′-[sequence]-3′; TMPRSS2, sense 5′-[sequence]-3′, antisense 5′-[sequence]-3′; GR, sense 5′-[sequence]-3′, antisense 5′-[sequence]-3′; HPRT, sense 5′-[sequence]-3′; antisense 5′-[sequence]-3′; GAPDH, sense 5′-[sequence]-3′; antisense 5′-[sequence]-3′. Expression levels were evaluated with the ΔΔCt method and were normalized to GAPDH. Results are expressed as mRNA expression, relative to control (untreated cells), and are the mean ± SEM of 3 independent experiments. […]

[3] = target: T4, full-length wild-type AR (hAR) (Homo sapiens, UniProt P10275); assay: Transactivation (luciferase) assay in U2OS-hAR-ARE-Luc reporter cells, screen and validation; type: cell-based; details: for Results of 1st screen on AR: 0.3, 1, 3, 10 µM, 16 h, hit = AR transcriptional activity changed by more than 50% dose-dependently, <20% effect in control cells
T4 sequence (P10275 1-920): T1 sequence (P10275 1-920)
Protocol: U2OS-hAR-ARE(Rad9)-Luc and U2OS-hARv7-ARE(PB)-Luc were then used to screen the Prestwick phytochemical library®, containing 320 natural compounds, at four concentrations (0.3, 1, 3, 10 µM) in duplicate.

[4] = listed as Harmol hydrochloride monohydrate

## Cc1nccc2c1[nH]c1cc(O)ccc12 [harmol hydrochloride, Harmol hydrochloride monohydrate]
[1]
  Expression of the AR non-target gene HPRT: unaffected
  R1881-mediated expression of AR target genes TMPRSS2, FKBP5, PSA: significant decrease
full-length AR
  Inhibition of AR transactivation: significant inhibition of AR transactivation
AR; 10 nM R1881
  Inhibition of AR transactivation: inhibition was not significant
AR; R1881 0.1 nM
  IC50: 183 nM
AR; R1881 0.3 nM
  IC50: 535 nM
AR; R1881 1 nM
  IC50: 1900 nM
[2]
  Activity towards GR: did not show any significant activity
GR
  Expression of GR at the mRNA and protein levels: neither harmol nor enzalutamide treatment could significantly alter the expression of GR
[3]; 1 nM versus 100 nM R1881
  Nature of AR inhibition (competitive or non-competitive): competitive antagonism
[3]; [4]
  Results of 1st screen on AR: Inhibition
  Results of confirmatory screen (validation of AR inhibition): Confirmed
[3]; listed as harmol
  Results of 1st screen on AR: active inhibitors of AR transcriptional activity
  Results of confirmatory screen (validation of AR inhibition): could impair the transcriptional activity of AR
